From US20090286837A1, “Oxadiazole compounds as urokinase inhibitors” (priority 2005, published 2009)

Tested on: BN-472 metastasizing breast tumor
Assay: anti-tumor and anti-metastatic efficacy in the BN-472 metastasizing breast tumor model
Type: in vivo, brown Norwegian rats
Conditions: oral administration, daily doses of 0.2 or 2 mg/kg for three weeks, rats
Experimental: Experiments were carried out in order to investigate the anti-tumor efficacy and anti-metastatic efficacy of WX-771, WX-780 and WX-781.
The assay system used was the BN-472 metastasizing breast tumor in brown Norwegian rats. The kind of tumor tissue used is described, for example, in Kort et al., J. Natl. Cancer Inst. 72 (1984) 709-713. The rats were purchased from Harlan Nederland, NL 5960-AD Horst, the Netherlands, and were from six to eight weeks old with a weight of from 128 g to 170 g.
(4-Chlorobenzylsulfonyl-D-Ser-Gly-4-guanidinobenzyl-amide, hydrochloride salt) whose anti-tumor and anti-metastatic efficacy with subcutaneous injection had been disclosed was also studied for comparative purposes. For administration, 0.75 mg of WX-340 was dissolved in 20 ml of 5% (weight/volume) D-manitol in water and administered by subcutaneous injection in doses of 0.2 mg of drug/kg of rat.
A phosphatidylcholine vehicle was administered as control and was obtained by introducing 400 mg of soya phosphatidylcholine in 20 ml of phosphate-buffered saline and 400 μl of absolute ethanol. 0.8 ml of the suspension was administered orally to the rats as control.
WX-771 (7.5 mg) was introduced into 20 ml of a soya phosphatidylcholine solution as used also for the control. To administer 2 mg/kg, 0.8 ml of this suspension was administered orally. For a second group, the stock solution was diluted 1:10 to obtain a dose of 0.2 mg/kg when administering likewise 0.8 ml per rat.
(§1) WX-780 (7.5 mg) was introduced into 20 ml of a soya phosphatidylcholine suspension according to the above-described control suspension. To administer a dose of 2 mg/kg, the rats were given 0.8 ml of said suspension. To administer a dose of 0.2 mg/kg, the stock solution was diluted 1:10, with 0.8 ml per rat still being administered.
as §1, with “WX-781” for “WX-780”, “orally.” for “of said suspension.”, “ml/rat” for “ml per rat”, “administered orally.” for “administered.”

Compound	anti-metastatic action	anti-tumor action
CC(C)(C)C(=O)OC[C@@H](NS(=O)(=O)Cc1ccc(Cl)cc1)C(=O)NCC(=O)NCc1ccc(NC(=N)NOC(=O)C(C)(C)C)cc1 [WX-771]	significant	significant
C[C@@H](C(=O)NCc1ccc(Nc2noc(C(C)(C)C)n2)cc1)N(C)C(=O)[C@@H](COC(=O)C(C)(C)C)NS(=O)(=O)Cc1ccc(Cl)cc1 [WX-780]	significant	significant
CC(C)(C)C(=O)OC[C@@H](NS(=O)(=O)Cc1ccc(Cl)cc1)C(=O)NCC(=O)NCc1ccc(Nc2noc(C(C)(C)C)n2)cc1 [WX-781]	significant	significant
